Here are results for 2 compounds from EP3714904B1, “IMINODIACETIC ACID SUBSTITUTED CYCLODEXTRINS AS POTENTIATORS OF BETA-LACTAM ANTIBIOTICS” (NATIONAL CENTER FOR SCIENTIFIC RESEARCH "DEMOKRITOS" (NCSRD), priority 2019, dated 2020).

For data set [1], the system named is NDM-1 producing K. pneumoniae strain LA26. Briefly: Murine sepsis model: single dose treatment scheme-2. It counts as in vivo, CD-1 mice. As for the experimental part:
Example 9. […] Blood samples were collected at 0, 6 and 24 hours after injection of a single dose of antibiotic (4 infected animals for each timepoint), were serially diluted in normal saline (10^-1 to 10^-9) and plated on MH agar plates which were incubated for 16 hours at 37°C for determination of viable organisms. […] The resulting 3.0log10 reduction in the blood bacterial load in the presence of 120 mg/kg of the inhibitor β-IDACYD compared to the antibiotic itself confirmed the high repotentiation abilities of the inhibitor to carbapenems even for suboptimal antibiotic doses. […] Treatment was given in a form of a single shot 2h after infection and blood was drawn 0h, 6h and 24h post treatment initiation. All groups were of n=10. Error bars are indicative of SEM (n=2 replicates).

Data set [2] relates to NDM-1 producing K. pneumoniae clinical strain LA 26. Briefly: Murine sepsis model: single dose treatment scheme-1. It counts as in vivo, CD-1 mice. As for the experimental part:
Example 8. In-vivo murine sepsis model: Single dose treatment scheme-1: Neutropenic 7-8 weeks old CD-1 female mice weighing 29 to 32 grams were infected interperitoneally with a lethal dose (10^7 CFU) of the NDM-1 producing K. pneumoniae clinical strain LA 26 as described previously. […] The meropenem/ β-IDACYD combination was administrated in all dosing schemes simultaneously. Blood samples were taken 0, 6, 24 hours and 3 days after injection of a single dose of antibiotic (five infected animals for each timepoint) and were serially diluted in normal saline (10^-1 to 10^-9) and plated on MH agar plates which were incubated for 16 hours at 37 °C for determination of viable organisms. All mice were euthanised 3 days post infection and spleen and liver were harvested. Organs were placed into 1 mL of normal saline on ice and then homogenised. Organ homogenates were then serially diluted in normal saline (10^-1 to 10^-9) and plated on MH agar plates for CFU enumeration. In the absence of therapy 30% of mice remained alive 70 hours post infection. […] The bacterial burden in the blood 70 hours post treatment was relieved by 4.8log10 in the presence of 120 mg/kg of β-IDACYD compared to that of the antibiotic monotherapy. […] In Fig. 7 is shown the bacterial load (CFU/mL) and survival percentage of CD-1 mice infected with a lethal dose (10^7 CFU) of NDM-1 producing K. pneumoniae strain LA26. […] Treatment was given in a form of a single shot 2h after infection and blood was drawn 0h, 6h, 24h and 70h post treatment initiation. All groups were of n=10. Error bars are indicative of SEM (n=2 replicates).

Data set [3] has as its system MBL producing clinical strains. Briefly: MIC potentiation over the whole collection of isolates. It counts as cell-based. As to conditions: 50 µM β-IDACYD. As to the method:
Further the in-vitro inhibitory activity of IDACYDs was tested against highly resistant pathogens. Tables 3, 4 and 5 show the effect of IDACYDs using a collection of 36 highly resistant Gram negative strains (Table 2, Kirby-Bauer disc diffusion method) producing NDM, VIM and IMP type MBLs as well as 6 isolates expressing serine beta-lactamases (ESBLs, AmpCs). […] Clinical isolates co-expressing ESBLs and/or AmpC β-lactamases along with MBLs where re-sensitized to both imipenem and meropenem, as expected. Table 2: Collection of clinical isolates used for in-vitro evaluation

Data set [4] can be described thus: Luminex assay of lymphokines, cytokines and pro-inflammatory proteins in plasma of infected mice. It counts as in vivo. As to conditions: plasma from all the sepsis therapeutic schemes. The source says:
As a way to further measure and evaluate the in-vivo potency and safety of β-IDACYD, we determined the levels of a series of lymphokines, cytokines, and pro-inflammatory indicator proteins. The levels of Th17 immune response related ILs 17E, 6, 1β, 4, 21, 10, 17A, 17F, IFN-g, MIP-3a, TNF-a and TNF-b were all determined in a luminex assay using plasma isolated from the mice involved in all the sepsis therapeutic schemes. […] The observation was supported by the levels of the inflammatory response proteins CRP and SAP.

Data set [5] concerns NDM, VIM and IMP producing K. pneumoniae clinical isolates. Briefly: Time kill assays. It counts as cell-based. As for the experimental part: In Fig. 3 the results of the time-kill assays are shown. […] Results are expressed as log10 CFU/mL. Experiments were performed in duplicate. Antibiotic-free control cultures were included in each set of experiments as controls. Error bars are indicative of standard error mean (SEM) (n=2 replicates).

The subject of data set [6] is VIM-1 producing K. pneumoniae SEC-4. Briefly: Neutropenic murine thigh infection model. It counts as in vivo, CD-1 mice. As to conditions: 30 mg/kg imipenem + 10 mg/kg β-IDACYD intravenously, 2 h intervals for 24 hours. As to the method: Example 6. In-vivo murine thigh infection model: A murine thigh infection model was utilized based on the biodistribution results. In a neutropenic mouse thigh infection model was administered intravenously a therapeutic scheme of either 30 mg/kg imipenem or 30 mg/kg imipenem co-administered with 10 mg/kg β-IDACYD in 2 h intervals for 24 hours. At the end of the treatment the bacterial burden of the thigh was reduced by 0.5 log10 in the presence of 10 mg/kg β-IDACYD compared to that of the antibiotic monotherapy.
Twenty, 10 weeks old female (CD-1) mice were rendered neutropenic by administration of two doses of cyclophosphamide (150 mg/kg and 100 mg/kg per mouse on days -4 and -1, respectively). On day 0, all mice were challenged with 0.1 mL of a 10^7 CFU/mL of VIM-1 producing K. pneumoniae SEC-4 by intramuscular injection in the right thigh. From the six mice in the control group that were treated with normal saline (Group A), two mice were sacrificed 2 hours post inoculation while the other mice in groups of seven mice each were intravenously treated with 30 mg/kg imipenem (Group B) or 30 mg/kg imipenem along with 10 mg/kg β-IDACYD (Group C) at 2 hour intervals for 24 hours. At 6-hours post inoculation two mice of group 1 as well as three mice of each of groups 2 and 3 were sacrificed and their thighs were aseptically removed. […]

The target in data set [7] is VIM-1 (Pseudomonas aeruginosa, UniProt A0A0F7KYQ8). Briefly: Spectrophotometric IC50 determination against MBL. The conditions noted are these: ± 1.07. It counts as biochemical.
[8] abbreviates: single dose 30 mg/kg meropenem + 120 mg/kg β-IDACYD.

By IC50 is commonly meant the concentration needed to halve the response being measured. Read a high IC50 as lower potency.

Turning to `C[C@@H](O)[C@H]1C(=O)N2C(C(=O)O)=C(S[C@@H]3CN[C@H](C(=O)N(C)C)C3)[C@H](C)[C@H]12` [Meropenem, reference compound], the protection from death entry in data set [1] (meropenem monotherapy, single dose 10 mg/kg, within 48 h) was “unable to protect any mice from death”. The survival in data set [2] (meropenem monotherapy, single dose 30 mg/kg, 70 hours post infection) is recorded as 30%.
Regarding `CO[C@@H]1[C@@H](OC)[C@H]2O[C@H]3[C@H](OC)[C@@H](OC)[C@@H](O[C@H]4[C@H](OC)[C@@H](OC)[C@@H](O[C@H]5[C@H](OC)[C@@H](OC)[C@@H](O[C@H]6[C@H](OC)[C@@H](OC)[C@@H](O[C@H]7[C@H](OC)[C@@H](OC)[C@@H](O[C@H]8[C@H](OC)[C@@H](OC)[C@@H](O[C@@H]1[C@@H](CN(CC(=O)O)CC(=O)O)O2)O[C@@H]8CN(CC(=O)O)CC(=O)O)O[C@@H]7CN(CC(=O)O)CC(=O)O)O[C@@H]6CN(CC(=O)O)CC(=O)O)O[C@@H]5CN(CC(=O)O)CC(=O)O)O[C@@H]4CN(CC(=O)O)CC(=O)O)O[C@@H]3CN(CC(=O)O)CC(=O)O` [β-IDACYD], in data set [1] (single dose 10 mg/kg meropenem + 120 mg/kg β-IDACYD), the “reduction in the blood bacterial load compared to the antibiotic itself” value came out at 3.0 log10. Moreover, the “mice rescued (survival)” value in data set [1] (single dose 10 mg/kg meropenem + 120 mg/kg β-IDACYD, within 48 h) stood at 50%. In addition, the “reduction of meropenem's and imipenem's minimum inhibitory concentration (MIC)” value in data set [3] is “up to 256 fold”. Further, the “immune response (Th17 related ILs, IFN-g, MIP-3a, TNF-a, TNF-b; CRP, SAP)” value in data set [4] is on record as “at no times induced an immune response”. Moreover, the “reduction of the bacterial load (CFU/mL) compared to that of the antibiotic alone” value in data set [5] (50 µM β-IDACYD with meropenem or imipenem at MIC or 2xMIC, 24 hour incubation, strains LA26, LA 109/16, 5742) is recorded as above 8 log10. For the same compound, the “bacterial load in time-kill assay” value in data set [5] (β-IDACYD 50 µM added to MIC or 2xMIC meropenem or imipenem) is “bacterial load remains close to zero”. Besides, in data set [2] (setting [8]), the “reduction of bacterial load in the liver” value came to 1.4 log10 and the “reduction of bacterial load in the spleen” value was found to be 3.8 log10. In data set [2] (single dose 30 mg/kg meropenem + 120 mg/kg β-IDACYD, 70 hours), the “mice rescued (survival)” value is 60%. In data set [2] (single dose 30 mg/kg meropenem + 120 mg/kg β-IDACYD, 70 hours post treatment), the “reduction of bacterial burden in the blood compared to antibiotic monotherapy” value is reported as 4.8 log10. Besides, the “reduction of bacterial burden of the thigh compared to antibiotic monotherapy” value in data set [6] turned out to be 0.5 log10. Also, 15 µM corresponded to half-maximal inhibition in data set [7] (IC50).
